In assay [1] the test system is synthesis of other prostanoids. The experiment in a line: Cell Based Assay for Measuring Eicosanoid Selectivity (A549, other prostanoids, PGI2). The arrangement: species or system human. The settings on record: A549 cells, rhIL-1β; PGI2 by enzyme immunoassay. Here is the method:
(§1) Human epithelial lung carcinoma cell line A549 is obtained from ATCC (CCL-185) and is maintained in Kaighn's F12 (“F12K”)+10% fetal bovine serum, (FBS) (plating medium), and 5% CO2. The cells are passaged at 1:3 twice a week.
(§2) For this assay, cells are released from flasks by washing once with phosphate buffered saline (PBS), then once with Trypsin/EDTA. After 3-5 minutes at 37° C., the cells are suspended in 10 mL of plating medium, and centrifuged at 2,000 rpm at 25° C. for 5 minutes. The supernatant is aspirated, and the cell pellet is resuspended in 10 mL F12K. Cell number is determined by counting an aliquot of cells, which has been diluted in PBS and Trypan blue on a hemocytometer. Cells are plated at 40,000/well in 96 well Falcon plates 24 hours prior to treatment. […] The plates are incubated at room temperature for 30-45 minutes, and then read on a plate reader at A490 to determine viability. […]
(§3) The conditioned medium is assayed for levels of PGE2 and PGI2 by specific enzyme immune-assays (ETAs) according to the manufacturer's protocols (Cayman) Briefly, conditioned medium (1 μL) is added to each well of a 96 well plate coated with a capture antibody and containing ETA buffer (49 μL) supplied by the manufacturer. […] After approximately 45 minutes at room temperature on an orbital shaker at 100 rpm, the plates are read at A412 on a plate reader. […]

Assay [2] deals with Dunkin Hartley guinea pigs. The experiment in a line: Monoiodoacetate (MIA) In Vivo Model, incapacitance testing. On the set-up: species or system guinea pig. The settings on record: for Mean % Reduction of Pain Compared to Vehicle / Mean Difference in Hind Paw Weight Bearing (Saline knee-MIA knee): four hours post-dose; for Mean Difference in Hind Paw Weight Bearing (Saline knee-MIA knee): 9 days after MIA, Mean ± SEM, n=6; for pain versus vehicle (statistical comparison): Example 1 both doses (10 and 50 mg/kg), diclofenac 30 mg/kg, p<0.05 by Dunnett's test. On the procedure: Male Dunkin Hartley guinea pigs weighing approximately 200-250 grams at the time of MIA injection are used to measure pain in the MIA model. The guinea pigs are group housed in a child's wading pool and maintained in a constant temperature and on a 12 hour light/12 hour dark cycle. On the day before study, the guinea pigs are moved to standard caging with 2 animals per cage. Animals have free access to food and water at all times except during data collection. All experiments are carried out according to protocols approved by the Eli Lilly Institutional Animal Care and Use Committees.
In the standard MIA model the right knees of each guinea pig are injected with MIA (0.3 mg) in saline ([…]) and the left knees with saline (50 μl). Pain is measured at 9 days after MIA injection using incapacitance testing. Incapacitance testing measures the difference in hind paw weight bearing between the MIA and saline injected knees, and each value represents the average of 3 separate measurements each measured over 1 second.
For this study, guinea pigs, are dosed with either vehicle (10% Cremophor® EL (CAS 61791-12-6) in saline) or Example 1 (10 or 50 mg/kg). A fourth group of guinea pigs are also dosed with the nonsteroidal anti-inflammatory drug diclofenac (vehicle saline, 30 mg/kg), which acts as a positive control for the study, as it has previously shown efficacy in the model. All dosing is subcutaneous at a dose volume of 5 ml/kg and group size is n=6. Dose group is randomly assigned to each animal and dosing is staggered by 10 minutes for each guinea pig. Four hours post-dose, pain is measured using incapacitance testing. Results are reported in Table 13 as the mean difference in weight bearing between saline and MIA injected knees and statistical comparisons are made between vehicle treated and compound treated animals to assess the effect of the compound of Example 1 on knee pain in the model.
Data is evaluated by one way analysis of variance; p<0.05 by Dunnett's test for comparison to vehicle and a Bonferroni adjustment is used for comparison between groups.

In a further assay the target is T1, Human mPGES-1 (Homo sapiens, UniProt O14684).
T1 construct: host or cells: 293E cells (transient expression from pcDNA3.1); microsomes
T1 sequence (O14684 1-152): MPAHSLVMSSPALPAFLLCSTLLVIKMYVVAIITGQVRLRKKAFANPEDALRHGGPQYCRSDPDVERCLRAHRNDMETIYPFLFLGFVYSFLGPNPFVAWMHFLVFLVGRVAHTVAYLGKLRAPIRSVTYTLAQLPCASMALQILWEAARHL
Nature of the assay: Human mPGES-1 Enzyme Inhibition Assay. The class given is biochemical. The conditions noted are these: microsomes from 293E cells, 1.69 μM PGH2; mean±standard deviation; n=10/22.

The next assay concerns PGE2 formation. The experiment in a line: Cell Based Assay for Measuring Eicosanoid Selectivity (A549, rhIL-1β induced PGE2). The settings on record: Homo sapiens; A549 cells, rhIL-1β 0.1-0.2 ng/mL, approx. 18 hours; mean±standard deviation; n=4; read-out: IC50 inhibition of PGE2 formation. Here is the method: as §1, §2, §3
In assay [3] the test system is PGF2α and TXB2 production. Nature of the assay: Human Whole Blood Assay (LPS, PGF2α and TXB2). The conditions noted are these: LPS 100 μg/mL, 20-24 hours. The assay is classed as cell-based. On the procedure:
Blood is collected from normal volunteer donors into sodium heparin vacutainer tubes. Donors have not taken NSAIDs, aspirin, Celebrex, or glucocorticoids within two weeks of the donation. All tubes/donor are pooled into 250 mL Corning conical centrifuge tubes and 436.5 μL/well is distributed into deep well polypropylene plates. Compounds are diluted in DMSO to 100× final and 4.5 μL/well in duplicate or triplicate is added to give 7 point curves. The blood is pretreated at 37° C., 5% CO2, in a humidified atmosphere, loosely covered with a silicone cap mat, for 30 minutes after which 9 μL/well of a solution of 5 mg/mL of lipopolysaccharide (LPS) (Sigma 0111:B4) in 1 mg/mL bovine serum albumin (BSA)/PBS is added to give a final LPS concentration of 100 μg/mL. The plates are incubated for 20-24 hours, loosely covered, at 37° C., 5% CO2, in a humidified atmosphere, on an orbital shaker at approximately 100 rpm. The plates are tightly sealed with silicone cap mats and are chilled on ice for approximately 1 hour. Then the plates are centrifuged at 1800×g, 10 minutes, 4° C., in an Eppendorf 5810R centrifuge. […] One hundred microliters is quantitatively transferred to Costar cluster tubes blocks and 400 μL/well of the methanol stop reagent and internal standards, d-4PGE2, d-4PGF2α, and d-4TX2β are added. […] The products were analyzed by LC/MS/MS.

Broadly, the IC50 is the concentration needed to halve the response being measured.

Description for Human mPGES-1: Human mPGES-1 (Invitrogen™ (Cat #97002RG, clone ID 6374722)) is subcloned into pcDNA3.1 and transiently expressed in 293E cells. […] Briefly, pellets are brought up in homogenization buffer (15 mM Tris-HCl, pH 8.0; 0.25 M sucrose; 0.1 mM EDTA; 1 mM glutathione) and sonicated 5×30 seconds on ice. Homogenate is centrifuged at 5000×g for 10 minutes at 4° C. The supernatant fraction is decanted; loaded into Beckman Quick-Seal® tubes; and centrifuged at 150,000×g for 90 minutes at 4° C. The supernatant fraction is discarded by decantation; and the pellets are resuspended in assay buffer (10 mM sodium phosphate (pH 7.0), 10% glycerol, and 2.5 mM glutathione. Complete Protease Inhibitor Cocktail (Roche)). Protein concentration is determined using the Pierce Coomassie Plus™ reagent.
For the enzyme assay, the microsomes are diluted into assay buffer and 7 μL/well is added to 384 well plates. Compound dilution plates (Nunc Cat #249944) are generated on a Multimek™, and 1 μL/well is added to the assay plates. Prostaglandin H2 (PGH2) is diluted into assay buffer immediately before use and 7 μL/well is added. Final concentrations are 4.4 μg/mL microsomes and 1.69 μM PGH2. After a 2.5 minute incubation at room temperature, 2.5 μL/well of 1 mg/mL of snCl2 in 0.5 N HCl is added to stop the reaction. […]

With `Cc1nc(NC(=O)c2cc(CNC(=O)C(C)C)cnc2C(F)F)[nH]c1-c1ccc(C(F)(F)F)cc1` [Example 1, 2-(Difluoromethyl)-5-{[(2-methylpropanoyl)amino]methyl}-N-{4-methyl-5-[4-(trifluoromethyl)phenyl]-1H-imidazol-2-yl}pyridine-3-carboxamide], the “effect on synthesis of other prostanoids” value in assay [1] is on record as “without affecting the synthesis of other prostanoids”. Further, in assay [2] (10 mg/kg subcutaneous), the “Mean % Reduction of Pain Compared to Vehicle” value (shortened to “Mean % Reduction”) was determined as 15% and the “Mean Difference in Hind Paw Weight Bearing (Saline knee-MIA knee)” value (from here on “Mean Difference”) was 37.53 ± 0.87 g. In assay [2] (50 mg/kg subcutaneous), the “Mean % Reduction” value is 36% and the “Mean Difference” value turned out to be 28.44 ± 0.66 g. Besides, the “50 mg/kg group compared with the 10 mg/kg group and the diclofenac group” value in assay [2] (50 mg/kg, Bonferroni adjustment for comparison between groups) was “significantly different”. In assay [2], the “pain versus vehicle (statistical comparison)” value is given as “significantly reduce pain”. The molecule further registered a half-maximal inhibitory concentration (IC50) against Human mPGES-1 of 0.944 ± 0.59 nM. For the same molecule, the IC50 in the assay with PGE2 formation amounted to 12.1 ± 6.1 nM. In assay [3], the “effect on PGF2α production” value is “without inhibiting” and the “effect on TXB2 production” value is on record as “without inhibiting”.

For `O=C(O)Cc1ccccc1Nc1c(Cl)cccc1Cl` [Diclofenac, diclofenac, reference compound], in assay [2] (30 mg/kg subcutaneous), the “Mean % Reduction” value stood at 22% and the “Mean Difference” value was 34.65 ± 1.14 g. Moreover, the “pain versus vehicle (statistical comparison)” value in assay [2] is on record as “significantly reduce pain”.

The values are drawn from patent publication US8648200B2, “Imidazole derivatives useful for the treatment of arthritis” (Eli Lilly and Company, priority 2011, dated 2014).
